# Measurements: patent US9255103B2, “Substituted pyrazolo[1,5-a]pyrazines as mGluR5 receptor modulators” (Vanderbilt University, priority 2010, dated 2016)
# Like-named read-outs stand apart in the source and are kept apart here.
# Columns and labels:
# human mGluR5a receptor = human mGluR5a receptor (Homo sapiens, UniProt P41594); assay: Cell-based functional Ca2+ mobilization assay (FDSS), potentiation of glutamate EC20 response in H10H cell line; conditions: for Emax: percent of maximal glutamate response, human mGluR5 HEK cells; for pEC50 / EC50: HEK cells transfected with human mGluR5 (H10H), presence of glutamate EC20; for pEC50: concentration in mol/L; for EC50: read-out: EC50
# Sequence of human mGluR5a receptor (P41594 21-1180 isoform P41594-2 limits assumed): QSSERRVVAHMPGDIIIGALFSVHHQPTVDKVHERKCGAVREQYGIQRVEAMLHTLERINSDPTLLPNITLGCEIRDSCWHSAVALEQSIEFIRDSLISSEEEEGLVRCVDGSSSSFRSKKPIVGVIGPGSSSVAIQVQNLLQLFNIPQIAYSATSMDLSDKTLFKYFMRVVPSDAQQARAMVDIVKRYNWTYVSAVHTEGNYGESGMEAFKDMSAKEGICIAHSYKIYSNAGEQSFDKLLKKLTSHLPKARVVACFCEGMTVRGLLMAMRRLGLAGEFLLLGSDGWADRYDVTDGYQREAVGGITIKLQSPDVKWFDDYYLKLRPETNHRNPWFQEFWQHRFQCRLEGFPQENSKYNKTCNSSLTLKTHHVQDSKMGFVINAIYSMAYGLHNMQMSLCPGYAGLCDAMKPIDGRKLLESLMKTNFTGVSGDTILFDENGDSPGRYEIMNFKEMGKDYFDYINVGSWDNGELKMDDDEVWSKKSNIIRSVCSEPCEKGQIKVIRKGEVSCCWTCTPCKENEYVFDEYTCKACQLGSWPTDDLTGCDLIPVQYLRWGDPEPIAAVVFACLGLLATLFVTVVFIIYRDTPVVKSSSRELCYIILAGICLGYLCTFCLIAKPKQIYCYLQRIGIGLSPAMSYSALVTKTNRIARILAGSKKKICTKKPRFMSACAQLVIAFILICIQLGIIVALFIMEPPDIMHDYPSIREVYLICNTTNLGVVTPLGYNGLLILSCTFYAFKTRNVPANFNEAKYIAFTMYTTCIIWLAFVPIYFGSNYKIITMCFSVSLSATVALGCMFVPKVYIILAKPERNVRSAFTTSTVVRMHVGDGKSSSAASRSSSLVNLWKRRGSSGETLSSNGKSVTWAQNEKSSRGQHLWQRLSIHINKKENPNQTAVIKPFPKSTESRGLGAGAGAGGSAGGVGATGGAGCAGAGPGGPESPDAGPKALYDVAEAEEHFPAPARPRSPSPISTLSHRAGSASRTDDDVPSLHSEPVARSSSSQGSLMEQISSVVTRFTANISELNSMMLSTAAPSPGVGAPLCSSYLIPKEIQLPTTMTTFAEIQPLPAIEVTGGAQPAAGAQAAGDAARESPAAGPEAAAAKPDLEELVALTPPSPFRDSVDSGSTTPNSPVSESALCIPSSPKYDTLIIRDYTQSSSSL
# Experimental: Human embryonic kidney (HEK) cells transfected with rat mGluR5 were plated in clear bottom assay plates for assay in a Functional Drug Screening System (FDSS). In the alternative assay, HEK cells transfected with human mGluR5 (H10H cell line) were plated for assay in the FDSS. […] The cells were loaded with a Ca^2+-sensitive fluorescent dye (e.g., Fluo-4), and the plates were washed and placed in the FDSS instrument. After establishment of a fluorescence baseline for twelve seconds, the compounds of the present invention were added to the cells, and the response in cells was measured. Alternatively, in various further aspects, after establishment of a fluorescence baseline for about three seconds, the compounds of the present invention were added to the cells, and the response in cells was measured. Five minutes later, an mGluR5 agonist (e.g., glutamate, 3,5-dihydroxyphenylglycine, or quisqualate) was added to the cells, and the response of the cells was measured.
# The above described assay operated in two modes. In the first mode, a range of concentrations of the present compounds were added to cells, followed by a single fixed concentration of agonist. If a compound acted as a potentiator, an EC50 value for potentiation and a maximum extent of potentiation by the compound at this concentration of agonist was determined by non-linear curve fitting. In the second mode, several fixed concentrations of the present compounds were added to various wells on a plate, followed by a range of concentrations of agonist for each concentration of present compound; the EC50 values for the agonist at each concentration of compound were determined by non-linear curve fitting. A decrease in the EC50 value of the agonist with increasing concentrations of the present compounds (a leftward shift of the agonist concentration-response curve) is an indication of the degree of mGluR5 potentiation at a given concentration of the present compound. An increase in the EC50 value of the agonist with increasing concentrations of the present compounds (a rightward shift of the agonist concentration-response curve) is an indication of the degree of mGluR5 antagonism at a given concentration of the present compound. The second mode also indicates whether the present compounds also affect the maximum response to mGluR5 to agonists.
# The mGluR5 activity was determined using the metabotropic glutamate receptor activity assays in human embryonic kidney cells as described herein, wherein the human embryonic kidney cells were transfected with human mGluR5. The compounds in Table 1 were synthesized with methods identical or analogous to those shown herein. The requisite starting materials were commercially available, described in the literature, or readily synthesized by one skilled in the art of organic synthesis.
# Human mGluR5a cDNA in pCMV6-XL6 mammalian expression plasmid was purchased from OriGene Technologies, Inc. (catalogue number SC326357) and subcloned into pcDNA3.1(−). Human embryonic kidney (HEK)293A cells were then transfected with human mGluR5a pcDNA3.1(−) using LipofectAmine2000 (Invitrogen) and monoclones were selected and tested for functional response using a Ca^2+ mobilization assay. Monoclones were named for the species (“H” for human) plus the location on the plate (e.g. “10H”).
# HEK cells transfected with the human mGluR5a receptor (H10H cell line) were plated at 15,000 cells/well in clear-bottomed poly-D-lysine-coated assay plates (BD Falcon) in glutamate-glutamine-free growth medium and incubated overnight at 37° C. and 5% CO2. The following day, the growth medium was removed and the cells were washed with assay buffer containing 1× Hank's balanced salt solution (Invitrogen, Carlsbad, Calif.), 20 mM HEPES, 2.5 mM probenecid, pH 7.4 and left with 20 μL of this reagent.
# male Sprague-Dawley rats = assay: Reversal of amphetamine-induced hyperlocomotion in rats; type: in vivo, rat; conditions: oral gavage, doses as in FIG. 4; amphetamine sulfate 1 mg/kg sc; data only in FIG. 4
# Experimental: Locomotor activity was assessed as mean distance traveled (cm) in standard 16×16 photocell testing chambers measuring 43.2 cm (Length)×43.2 cm (Width)×30.5 cm (Height) (Med Associates, St. Albans, Vt.). Animals were habituated to individual activity chambers for at least 30 min prior to drug administration. Following administration of drug or vehicle, activity was recorded for a 90 minute time period. Data was expressed as the mean (±SEM) distance traveled recorded in 5 min intervals over the test period. The data was analyzed using repeated measures analysis of variance (ANOVA) followed by post-hoc testing using Dunnett's test, when appropriate. A difference was considered significant when p≦0.05. […]
# The animals were habituated in Smart Open Field locomotor activity test chambers (Hamilton-Kinder, San Diego, Calif.) with 16×16 photobeams to automatically record locomotor activity for 30 min and then dosed with vehicle or test compound. […] At 60 min, all rats were injected subcutaneously with 1 mg/kg amphetamine or vehicle and then monitored for an additional 60 min. Animals are monitored for a total of 120 minutes. Data are expressed as changes in ambulation defined as total number of beam breaks per 5 min periods.
# The data for the dose-response studies were analyzed by a between-group analysis of variance. […]
# [1] = HEK293, maximum average response at a single concentration, read-out: Emax
# [2] = maximum average response at a single concentration
Structure (SMILES),Emax (human mGluR5a receptor; [1]),pEC50 (human mGluR5a receptor),EC50 (human mGluR5a receptor),melting point,Emax (human mGluR5a receptor; [2]),reversal of amphetamine-induced hyperlocomotion (male Sprague-Dawley rats)
N#Cc1cc(C(=O)N2CCn3nc(COc4ccccc4)cc3C2)ccc1F [Compound 28],81%,5.78,1.66 µM,133.3 °C,–,–
O=C(c1ncccc1Cl)N1CCn2nc(COc3ccccc3)cc2C1 [Compound 29],47%,<5.00,> 10 µM,60 °C,–,–
N#Cc1cccc(C(=O)N2CCn3nc(COc4cccc(F)c4)cc3C2)c1 [Compound 30],59%,6.48,0.331 µM,101.5 °C,–,–
N#Cc1cc(F)cc(C(=O)N2CCn3nc(COc4cccc(F)c4)cc3C2)c1 [Compound 31],54%,6.77,0.17 µM,76.8 °C,–,–
N#Cc1ccc(C(=O)N2CCn3nc(COc4cccc(F)c4)cc3C2)cc1F [Compound 32],23%,5.75,1.78 µM,> 300 °C,–,–
N#Cc1cc(C(=O)N2CCn3nc(COc4cccc(F)c4)cc3C2)ccc1F [Compound 33],71%,5.98,1.05 µM,57.1 °C,–,–
Cc1cnc(C(=O)N2CCn3nc(COc4cccc(F)c4)cc3C2)cn1 [Compound 35],36%,<4.52,> 30.2 µM,105.5 °C,–,–
O=C(c1ccnnc1)N1CCn2nc(COc3cccc(F)c3)cc2C1 [Compound 36],39%,<5.00,> 10 µM,282.6 °C,–,–
O=C(c1cccc(F)c1)N1CCn2nc(COc3ccc(F)cc3)cc2C1 [Compound 39],55%,6.68,0.209 µM,> 300 °C,–,–
CC1CN(C(=O)c2cccc(C#N)c2)Cc2cc(COc3ccccc3)nn21 (centres unmarked) [Compound 43],72%,6.25,0.562 µM,88.8 °C,–,–
CC1Cn2nc(COc3ccccc3)cc2CN1C(=O)c1ccc(F)cc1 (centres unmarked) [Compound 45],–,6.62,0.24 µM,53.8 °C,75%,–
CC1Cn2nc(COc3ccccc3)cc2CN1C(=O)c1ccc(F)cc1 (centres unmarked) [Compound 46],–,<4.52,> 30.2 µM,> 300 °C,35%,–
CC1Cn2nc(COc3ccccc3)cc2CN1C(=O)c1cccc(C#N)c1 (centres unmarked) [Compound 49],52%,5.56,2.75 µM,> 300 °C,–,–
CC1Cn2nc(COc3ccccc3)cc2CN1C(=O)c1cccc(C#N)c1 (centres unmarked) [Compound 50],–,6.36,0.437 µM,53.9 °C,59%,–
O=C(c1ccc(F)cc1)N1CCn2nc(COc3ccccc3)c(Cl)c2C1 [Compound 55],23%,5.53,2.95 µM,136 °C,–,–
Cc1c(COc2ccccc2)nn2c1CN(C(=O)c1ccc(F)cc1)CC2 [Compound 57],44%,5.52,3.02 µM,158.5 °C,–,–
"O=C(c1ccc(F)cc1)N1CCn2nc(COc3ccccc3)cc2C1 [FPPPM, (4-fluorophenyl)(2-(phenoxymethyl)-6,7-dihydropyrazolo[1,5-a]pyrazin-5(4H)-yl)methanone]",–,–,–,–,–,reversal of amphetamine-induced hyperlocomotion
